The structures appear in SMILES notation. Values joined by “and” are separate entries in the source; they are usually repeats but may differ in a detail not shown here. Equal values may be shown once.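 Five concentrations, 48 hours, 96-well plates. GI50: concentration for 50% inhibition of growth. TGI: concentration producing complete growth inhibition.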 Bounds are passed on as bounds.

Among the test systems are KM12 colon; UO-31 renal; UACC-62 melanoma; ACHN renal; MDA-MB-435; SK-MEL-28 melanoma; LOX IMVI melanoma; SF-268 CNS; SK-MEL-5 melanoma; CCRF-CEM leukemia.
Test in all cases: inhibition of tumour cell growth, NCI panel, 48 h

As for `FC(F)(F)c1cccc2c(SCCc3n[nH]c(=S)o3)ccnc12`, the GI50 in the assay with KM12 colon is 52.7 µM; with UO-31 renal it was 25.4 µM; with UACC-62 melanoma, 16.6 µM; in the assay on ACHN renal, 60.2 µM; with MDA-MB-435, 45.4 µM; in the assay on SK-MEL-28 melanoma, 82.9 µM. In addition, the GI50 is 67 µM with LOX IMVI melanoma, 85.6 µM in the assay on SF-268 CNS, 19.5 µM in the assay on SK-MEL-5 melanoma and 38.6 µM with CCRF-CEM leukemia. Moreover, the TGI was greater than 100 µM in the assay with KM12 colon; greater than 100 µM in the assay with UO-31 renal; 34 µM with UACC-62 melanoma; greater than 100 µM in the assay on ACHN renal; greater than 100 µM in the assay with MDA-MB-435; greater than 100 µM in the assay on SK-MEL-28 melanoma. In addition, the TGI in the assay on LOX IMVI melanoma was greater than 100 µM; in the assay on SF-268 CNS, greater than 100 µM; in the assay on SK-MEL-5 melanoma it was 44.1 µM; in the assay on CCRF-CEM leukemia it was greater than 100 µM.
For the compound `Nc1c(C(=O)N/N=C/c2ccc(-c3cc(Cl)c(Cl)cc3Cl)o2)cnn1-c1ccnc2c(C(F)(F)F)cccc12`, the GI50 was 3.83 µM with KM12 colon; 3.49 µM in the assay on UO-31 renal; 3.94 µM in the assay on UACC-62 melanoma; 3.55 µM in the assay on ACHN renal; 3.85 µM in the assay with MDA-MB-435; 4.03 µM in the assay with SK-MEL-28 melanoma. Besides, the GI50 with LOX IMVI melanoma was 4.37 µM; in the assay on SF-268 CNS, 5.2 µM; in the assay on SK-MEL-5 melanoma it was 3.74 µM; with CCRF-CEM leukemia, 3.9 µM. Besides, the TGI in the assay on KM12 colon, in the assay on UO-31 renal, with UACC-62 melanoma, in the assay on ACHN renal, in the assay on MDA-MB-435 and with SK-MEL-28 melanoma was greater than 100 µM each time. The TGI is greater than 100 µM in the assay on LOX IMVI melanoma, greater than 100 µM with SF-268 CNS, 14.6 µM with SK-MEL-5 melanoma and greater than 100 µM in the assay on CCRF-CEM leukemia.
`Nc1ccc(C(OC(=O)c2cc3ccccc3c(Cc3c(O)c(C(=O)OC(c4ccc(N)cc4)(c4ccc(N)cc4)c4ccc(N)cc4)cc4ccccc34)c2O)(c2ccc(N)cc2)c2ccc(N)cc2)cc1`: the GI50 was 0.608 µM in the assay with KM12 colon; 3.66 µM in the assay with UO-31 renal; 1.98 µM in the assay with UACC-62 melanoma; 2.49 µM in the assay on ACHN renal; 2.5 µM with MDA-MB-435; 3.49 µM in the assay on SK-MEL-28 melanoma. The GI50 in the assay on LOX IMVI melanoma was 1.41 µM; in the assay on SF-268 CNS, 0.471 µM; in the assay with SK-MEL-5 melanoma it was 0.455 µM; with CCRF-CEM leukemia it was 3.03 µM. Besides, the TGI with KM12 colon was 12.7 µM; in the assay on UO-31 renal, 63.4 µM; with UACC-62 melanoma it was 11.9 µM; in the assay on ACHN renal it was 54 µM; in the assay with MDA-MB-435, 30.3 µM; in the assay with SK-MEL-28 melanoma, 16.4 µM. Also, the TGI in the assay with LOX IMVI melanoma is 43.4 µM; with SF-268 CNS it was 18.7 µM; in the assay on SK-MEL-5 melanoma, 2.3 µM; in the assay on CCRF-CEM leukemia, greater than 100 µM.
For the compound `C[C@@H](COCCC(=O)N1CCN(c2ncc(C(F)(F)F)cn2)CC1)Nc1cn[nH]c(=O)c1C(F)(F)F`, the GI50 in the assay with KM12 colon is greater than 100 µM; with UO-31 renal it was 32.1 µM; in the assay on UACC-62 melanoma, 45.3 µM; in the assay with ACHN renal, 28.3 µM; in the assay with MDA-MB-435, greater than 100 µM; in the assay on SK-MEL-28 melanoma, greater than 100 µM. For the same compound, the GI50 was 27.9 µM in the assay on LOX IMVI melanoma, 42.8 µM with SF-268 CNS, 42.3 µM in the assay with SK-MEL-5 melanoma and 15 µM in the assay with CCRF-CEM leukemia. Also, the TGI in the assay with KM12 colon, in the assay on UO-31 renal, in the assay with UACC-62 melanoma, in the assay on ACHN renal, in the assay with MDA-MB-435 and with SK-MEL-28 melanoma was greater than 100 µM in each case. The TGI in the assay on LOX IMVI melanoma, in the assay on SF-268 CNS, with SK-MEL-5 melanoma and in the assay on CCRF-CEM leukemia was greater than 100 µM in each case.
For `NC(=O)c1ccccc1NC(=O)c1ccccc1Cl`, the GI50 in the assay with KM12 colon was greater than 100 µM; with UO-31 renal, greater than 100 µM; with UACC-62 melanoma, greater than 100 µM; in the assay with ACHN renal, greater than 100 µM; in the assay on MDA-MB-435, 58.9 µM; with SK-MEL-28 melanoma, greater than 100 µM. Besides, the GI50 in the assay with LOX IMVI melanoma, with SF-268 CNS, with SK-MEL-5 melanoma and with CCRF-CEM leukemia was greater than 100 µM throughout. Further, the TGI in the assay with KM12 colon, with UO-31 renal, with UACC-62 melanoma, with ACHN renal, with MDA-MB-435 and with SK-MEL-28 melanoma was greater than 100 µM in each case. In addition, the TGI in the assay with LOX IMVI melanoma, in the assay with SF-268 CNS, in the assay with SK-MEL-5 melanoma and with CCRF-CEM leukemia was greater than 100 µM in each case.
Take `COc1cc(F)c(/C=C/c2cc(/C=C/c3cc(OC)c(OC)cc3F)n(-c3cc(F)cc(F)c3)n2)cc1OC`: the GI50 in the assay with KM12 colon is 3.3 µM; with UO-31 renal it was 14.1 µM; in the assay on UACC-62 melanoma, 1.65 µM; with ACHN renal, 18.1 µM; with MDA-MB-435 it was 2.03 µM; in the assay on SK-MEL-28 melanoma, 2.36 µM. Moreover, the GI50 is 2.62 µM with LOX IMVI melanoma, 3.15 µM in the assay with SF-268 CNS, 2.84 µM with SK-MEL-5 melanoma and 37.5 µM in the assay with CCRF-CEM leukemia. Further, the TGI worked out at 12.8 µM with KM12 colon; 34.4 µM in the assay on UO-31 renal; 3.32 µM in the assay with UACC-62 melanoma; 46.2 µM in the assay with ACHN renal; 4.63 µM in the assay with MDA-MB-435; 5.75 µM in the assay on SK-MEL-28 melanoma. In addition, the TGI with LOX IMVI melanoma is 8.3 µM; in the assay on SF-268 CNS, 13.6 µM; with SK-MEL-5 melanoma it was 9.38 µM; in the assay on CCRF-CEM leukemia, greater than 100 µM.
Regarding `Cn1cnc2c(F)c(Nc3ccc(Br)cc3F)c(C(=O)NOCCO)cc21`, the GI50 is 0.264 µM and 0.445 µM in the assay with KM12 colon; 7.41 µM in the assay on UO-31 renal; 0.0174 µM and 0.0234 µM with UACC-62 melanoma; 10.5 µM in the assay with ACHN renal; 0.0609 µM and 0.0547 µM in the assay with MDA-MB-435; 0.0269 µM and 0.0304 µM with SK-MEL-28 melanoma. For the same compound, the GI50 was 0.0936 µM and 0.399 µM with LOX IMVI melanoma; > 2.05 µM and 50.5 µM with SF-268 CNS; 0.787 µM and 0.414 µM in the assay with SK-MEL-5 melanoma; greater than 100 µM in the assay with CCRF-CEM leukemia. For the same compound, the TGI with KM12 colon is greater than 100 µM; in the assay on UO-31 renal, greater than 100 µM; in the assay with UACC-62 melanoma, 0.228 µM and 0.664 µM; in the assay with ACHN renal, greater than 100 µM; with MDA-MB-435, greater than 100 µM; in the assay on SK-MEL-28 melanoma, 0.321 µM and 0.889 µM. The TGI with LOX IMVI melanoma was > 4.03 µM and 42.8 µM; with SF-268 CNS it was greater than 100 µM; with SK-MEL-5 melanoma, greater than 100 µM; in the assay on CCRF-CEM leukemia it was greater than 100 µM.
In the case of `Cc1cc(N(CCCNc2ccnc3cc(Cl)ccc23)Cc2ccc3c(c2)OCO3)nc(N2CCCCC2)n1`, the GI50 is 2.15 µM in the assay on KM12 colon; 1.25 µM in the assay on UO-31 renal; 1.91 µM in the assay with UACC-62 melanoma; 2.32 µM in the assay with ACHN renal; 1.72 µM in the assay with MDA-MB-435; 1.94 µM in the assay on SK-MEL-28 melanoma. Besides, the GI50 is 1.69 µM with LOX IMVI melanoma, 2.33 µM in the assay on SF-268 CNS, 1.75 µM with SK-MEL-5 melanoma and 2.92 µM in the assay with CCRF-CEM leukemia. The TGI came out at 5.39 µM in the assay on KM12 colon; 2.82 µM with UO-31 renal; 3.64 µM in the assay with UACC-62 melanoma; 4.84 µM in the assay with ACHN renal; 3.27 µM in the assay on MDA-MB-435; 3.66 µM with SK-MEL-28 melanoma. For the same compound, the TGI with LOX IMVI melanoma is 3.29 µM; in the assay on SF-268 CNS, 6.21 µM; in the assay on SK-MEL-5 melanoma it was 3.14 µM; with CCRF-CEM leukemia, greater than 100 µM.
With `NCCCN1CCN(CCCNc2nc3ccccc3c3[nH]c4ccccc4c23)CC1`, the GI50 in the assay with KM12 colon is 0.415 µM; with UO-31 renal, 0.771 µM; in the assay on UACC-62 melanoma, 0.541 µM; in the assay on ACHN renal, 0.378 µM; in the assay on MDA-MB-435, 0.651 µM; in the assay on SK-MEL-28 melanoma, 0.888 µM. In addition, the GI50 in the assay with LOX IMVI melanoma is 0.409 µM; with SF-268 CNS, 0.316 µM; with SK-MEL-5 melanoma it was 1.14 µM; in the assay on CCRF-CEM leukemia it was 0.385 µM. In addition, the TGI stood at 11.8 µM in the assay with UO-31 renal; 1.1 µM with UACC-62 melanoma; 3.75 µM in the assay with ACHN renal; 2.41 µM in the assay with MDA-MB-435; 2.32 µM in the assay with SK-MEL-28 melanoma; 1.81 µM in the assay with LOX IMVI melanoma. The TGI in the assay on SF-268 CNS was 1.94 µM; in the assay on SK-MEL-5 melanoma it was 2.53 µM.
On to `Cc1nc2c(N3CCCC3)nc(N3CCNCC3)nc2nc1NCc1ccccc1`, for which the GI50 in the assay with KM12 colon was 6.53 µM; with UO-31 renal, 1.48 µM; in the assay on UACC-62 melanoma, 6.15 µM; with ACHN renal, 2.69 µM; in the assay on MDA-MB-435, 4.36 µM; in the assay with LOX IMVI melanoma, 2.47 µM. In addition, the GI50 was 5.75 µM in the assay with SF-268 CNS, 4.94 µM in the assay with SK-MEL-5 melanoma and 4.65 µM with CCRF-CEM leukemia. Moreover, the TGI in the assay on KM12 colon is 26.6 µM and 13.3 µM; in the assay on UO-31 renal, 6.06 µM and 6.39 µM; in the assay on UACC-62 melanoma, 12.7 µM and 7.58 µM; in the assay with ACHN renal, 7.54 µM and 16.5 µM; in the assay on MDA-MB-435, 10 µM and 6.41 µM; in the assay on SK-MEL-28 melanoma it was 3.75 µM. The TGI in the assay on LOX IMVI melanoma is 16.8 µM and 3.19 µM; in the assay with SF-268 CNS it was 12.2 µM and 15.1 µM; in the assay with SK-MEL-5 melanoma it was 9.98 µM and 3.06 µM; with CCRF-CEM leukemia, 11 µM and 6.27 µM.
With `Clc1cc(-c2ccccc2)nc2ccccc12`, the TGI is 77.5 µM with KM12 colon; greater than 100 µM in the assay with UO-31 renal; greater than 100 µM in the assay on UACC-62 melanoma; greater than 100 µM in the assay on ACHN renal; 95.4 µM with MDA-MB-435; greater than 100 µM with SK-MEL-28 melanoma. In addition, the TGI in the assay with LOX IMVI melanoma is greater than 100 µM; in the assay with SF-268 CNS it was greater than 100 µM; in the assay on SK-MEL-5 melanoma, 33 µM; with CCRF-CEM leukemia, 54.1 µM.

For the origin of these results see PubChem BioAssay (NCI).
